According to BigSolDB 2.1:

CCCNS(=O)(=O)Nc1ncnc(OCCOc2ncc(Br)cn2)c1-c1ccc(Br)cc1
solubility (mole fraction)
Conditions	273.15 K	278.15 K	283.15 K	288.15 K	293.15 K	298.15 K	303.15 K	308.15 K	313.15 K
in ethanol	6.4e-05	8.8e-05	0.000117	0.000151	0.000188	0.000234	0.000293	0.000365	0.000458
in ethyl acetate	0.00338	0.00406	0.00483	0.00577	0.00681	0.00793	0.00921	0.0107	0.0122
in isopropanol	4.7e-05	5.9e-05	7.5e-05	9.2e-05	0.000114	0.000141	0.000172	0.000206	0.000246
in methanol	7.6e-05	0.000109	0.000145	0.000186	0.000232	0.000284	0.000358	0.000463	0.000602
